Activity calls are given as the source filed them.
Columns and labels:
CHO-K1 = test: (§1) Counterscreen for antagonists of the orexin 1 receptor (OX1R; HCRTR1): Homogeneous time resolved fluorescence (HTRF)-based cell-based dose response assay to identify antagonists of the parental CHO-K1 cell line. [Related pubchem assays (depositor defined):AID434989, AID435008, AID463079, AID485270, AID492963, AID492964, AID492965, AID493232, AID504699, AID504701]; type: functional; details: Cricetulus griseus
[1] = as §1, with “Fluorescence-based” for “Homogeneous time resolved fluorescence (HTRF)-based”, “cell-based high throughput” for “cell-based”, “CHO” for “CHO-K1”; type: functional
[2] = molecular target: T1, Orexin/Hypocretin receptor type 1 (Homo sapiens, UniProt O43613); test: Homogeneous Time Resolved Fluorescence (HTRF)-based cell-based high throughput dose response assay for antagonists of the orexin 1 receptor (OX1R; HCRTR1). [Related pubchem assays (depositor defined):AID434989, AID435008, AID463079, AID485270, AID492963, AID492964, AID492965, AID493232, AID504717, AID504718]; type: functional
T1 sequence (O43613 whole entry): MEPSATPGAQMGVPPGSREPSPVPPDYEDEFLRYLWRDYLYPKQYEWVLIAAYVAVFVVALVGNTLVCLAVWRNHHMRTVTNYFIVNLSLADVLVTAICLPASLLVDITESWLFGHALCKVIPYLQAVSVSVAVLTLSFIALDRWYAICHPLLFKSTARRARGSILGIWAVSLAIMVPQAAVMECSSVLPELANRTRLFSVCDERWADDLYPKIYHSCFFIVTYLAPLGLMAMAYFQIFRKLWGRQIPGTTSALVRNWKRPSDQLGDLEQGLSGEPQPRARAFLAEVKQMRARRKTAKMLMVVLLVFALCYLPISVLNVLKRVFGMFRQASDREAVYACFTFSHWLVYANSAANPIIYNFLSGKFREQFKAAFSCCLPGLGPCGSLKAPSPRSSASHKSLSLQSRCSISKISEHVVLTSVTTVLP

[3] = molecular target: T1, Orexin/Hypocretin receptor type 1; test: Fluorescence-based cell-based high throughput dose response assay for antagonists of the orexin 1 receptor (OX1R; HCRTR1). [Related pubchem assays (depositor defined):AID434989, AID435008, AID463079, AID485270, AID492963, AID492964, AID492965, AID493232, AID504717, AID504718]; type: functional
HeLa = test: ATP-based viability loss in HeLa cells – cell-based, CellTiter-Glo luminescence, cherry-pick samples, cytotoxicity control for MITF activator project, dose response (AID 540259); type: functional; details: Homo sapiens
Orexin receptor type 2 [4] = molecular target: T2, Orexin receptor type 2 (Homo sapiens, UniProt O43614); test: Counterscreen assay for antagonists of the orexin 1 receptor (OX1R; HCRTR1): Fluorescence-based cell-based dose response assay for antagonists of the orexin 2 receptor (OX2R; HCRTR2), run by assay provider.; type: functional
T2 sequence (O43614 whole entry): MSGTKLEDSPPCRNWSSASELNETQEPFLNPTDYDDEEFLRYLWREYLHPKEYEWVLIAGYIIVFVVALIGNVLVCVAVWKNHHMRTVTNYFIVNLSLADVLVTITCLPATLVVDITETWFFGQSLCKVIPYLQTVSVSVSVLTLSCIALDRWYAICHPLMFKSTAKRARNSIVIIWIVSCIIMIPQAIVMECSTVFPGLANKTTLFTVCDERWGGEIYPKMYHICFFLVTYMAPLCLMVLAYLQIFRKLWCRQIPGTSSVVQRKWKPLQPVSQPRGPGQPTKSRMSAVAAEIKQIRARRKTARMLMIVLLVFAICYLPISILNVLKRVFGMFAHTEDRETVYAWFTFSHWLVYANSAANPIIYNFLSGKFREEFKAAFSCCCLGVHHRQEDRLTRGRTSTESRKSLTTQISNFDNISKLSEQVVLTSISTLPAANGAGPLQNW

Orexin receptor type 2 [5] = molecular target: T2, Orexin receptor type 2; test: Counterscreen assay for antagonists of the orexin 1 receptor (OX1R; HCRTR1): Homogeneous Time Resolved Fluorescence (HTRF)-based cell-based dose response assay for antagonists of the orexin 2 receptor (OX2R; HCRTR2), run by assay provider.; type: functional
Caspase-3 = molecular target: T3, Caspase-3 (Homo sapiens, UniProt P42574); type: functional;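 note: Dose-response selectivity test against caspase-3 for candidate inhibitors of sentrin-specific proteases (SENPs)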
T3 sequence (P42574 whole entry): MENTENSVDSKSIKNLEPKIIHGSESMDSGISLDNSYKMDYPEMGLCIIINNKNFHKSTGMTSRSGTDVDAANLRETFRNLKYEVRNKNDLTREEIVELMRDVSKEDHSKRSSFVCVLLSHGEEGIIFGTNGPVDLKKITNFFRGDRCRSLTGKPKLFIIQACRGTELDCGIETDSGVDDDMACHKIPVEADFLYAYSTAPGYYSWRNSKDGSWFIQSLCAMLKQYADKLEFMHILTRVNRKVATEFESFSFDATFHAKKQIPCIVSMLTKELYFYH

[6] = molecular target: T4, Sentrin-specific protease 7 (Homo sapiens, UniProt Q9BQF6); type: functional;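 note: Luminescence-based dose-response confirmation of ultra-high-throughput screening hits, measuring inhibition of SENP7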
T4 sequence (Q9BQF6 whole entry): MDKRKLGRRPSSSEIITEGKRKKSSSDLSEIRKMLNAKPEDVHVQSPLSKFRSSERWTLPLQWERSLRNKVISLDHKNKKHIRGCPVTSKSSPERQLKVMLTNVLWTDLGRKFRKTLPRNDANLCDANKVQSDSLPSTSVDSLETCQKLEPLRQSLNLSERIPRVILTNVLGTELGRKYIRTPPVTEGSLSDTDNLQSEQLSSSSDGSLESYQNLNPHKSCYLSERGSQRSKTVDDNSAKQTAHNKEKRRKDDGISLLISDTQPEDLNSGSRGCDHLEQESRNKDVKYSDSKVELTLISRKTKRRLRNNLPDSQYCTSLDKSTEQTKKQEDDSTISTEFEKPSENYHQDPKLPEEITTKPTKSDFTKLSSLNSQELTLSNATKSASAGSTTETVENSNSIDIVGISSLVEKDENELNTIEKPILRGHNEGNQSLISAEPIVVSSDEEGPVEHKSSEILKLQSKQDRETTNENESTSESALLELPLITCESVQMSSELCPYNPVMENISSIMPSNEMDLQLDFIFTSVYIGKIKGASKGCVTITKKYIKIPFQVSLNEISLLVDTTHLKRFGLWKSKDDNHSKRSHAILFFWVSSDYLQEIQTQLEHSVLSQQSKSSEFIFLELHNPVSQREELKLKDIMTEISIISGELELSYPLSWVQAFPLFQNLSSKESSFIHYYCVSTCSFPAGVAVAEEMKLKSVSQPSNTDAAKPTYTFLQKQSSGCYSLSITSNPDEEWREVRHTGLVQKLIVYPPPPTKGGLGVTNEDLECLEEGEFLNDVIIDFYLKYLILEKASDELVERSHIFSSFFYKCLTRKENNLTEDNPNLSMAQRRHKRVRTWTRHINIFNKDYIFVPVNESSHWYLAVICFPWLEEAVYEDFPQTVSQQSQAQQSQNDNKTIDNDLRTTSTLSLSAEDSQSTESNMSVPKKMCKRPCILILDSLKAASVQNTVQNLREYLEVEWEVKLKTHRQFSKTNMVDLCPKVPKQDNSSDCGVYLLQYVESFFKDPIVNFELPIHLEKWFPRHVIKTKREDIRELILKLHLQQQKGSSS

[7] = molecular target: T5, Sentrin-specific protease 6 (Homo sapiens, UniProt Q9GZR1); type: functional;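 note: Luminescence-based dose-response confirmatory assay of SENP6 inhibition, following up an ultra-high-throughput screen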
T5 sequence (Q9GZR1 whole entry): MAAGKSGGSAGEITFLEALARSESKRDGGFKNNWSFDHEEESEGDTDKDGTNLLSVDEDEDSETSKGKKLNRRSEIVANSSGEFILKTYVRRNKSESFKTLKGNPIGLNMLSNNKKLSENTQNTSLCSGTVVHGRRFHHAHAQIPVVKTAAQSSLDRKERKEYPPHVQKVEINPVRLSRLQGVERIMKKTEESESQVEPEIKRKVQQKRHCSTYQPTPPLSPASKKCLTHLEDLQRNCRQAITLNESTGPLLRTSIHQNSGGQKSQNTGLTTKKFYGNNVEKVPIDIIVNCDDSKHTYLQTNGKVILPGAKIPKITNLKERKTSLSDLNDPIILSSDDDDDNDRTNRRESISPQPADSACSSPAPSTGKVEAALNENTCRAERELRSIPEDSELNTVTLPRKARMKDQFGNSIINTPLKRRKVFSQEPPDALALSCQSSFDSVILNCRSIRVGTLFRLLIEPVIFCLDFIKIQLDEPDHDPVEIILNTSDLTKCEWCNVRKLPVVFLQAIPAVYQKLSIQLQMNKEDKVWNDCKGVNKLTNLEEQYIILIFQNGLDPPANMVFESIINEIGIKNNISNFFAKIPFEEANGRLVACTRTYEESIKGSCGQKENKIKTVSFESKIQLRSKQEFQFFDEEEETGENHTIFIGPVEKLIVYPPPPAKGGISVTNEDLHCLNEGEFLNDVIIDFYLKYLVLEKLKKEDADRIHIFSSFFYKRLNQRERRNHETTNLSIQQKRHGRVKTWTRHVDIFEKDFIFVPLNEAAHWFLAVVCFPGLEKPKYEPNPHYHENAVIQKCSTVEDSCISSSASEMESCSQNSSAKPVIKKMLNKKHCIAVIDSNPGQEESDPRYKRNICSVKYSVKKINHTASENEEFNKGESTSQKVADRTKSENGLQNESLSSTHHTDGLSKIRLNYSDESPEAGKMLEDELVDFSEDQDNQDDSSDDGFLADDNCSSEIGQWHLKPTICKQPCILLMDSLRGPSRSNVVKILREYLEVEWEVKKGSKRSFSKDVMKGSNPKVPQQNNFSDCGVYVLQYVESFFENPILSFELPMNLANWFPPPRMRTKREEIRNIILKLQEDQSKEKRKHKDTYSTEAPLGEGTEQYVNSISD

[8] = molecular target: T6, Sentrin-specific protease 8 (Homo sapiens, UniProt Q96LD8); type: functional;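 note: luminescence read-out of SENP8 inhibition, dose-response confirmation following an ultra-high-throughput screen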
T6 sequence (Q96LD8 whole entry): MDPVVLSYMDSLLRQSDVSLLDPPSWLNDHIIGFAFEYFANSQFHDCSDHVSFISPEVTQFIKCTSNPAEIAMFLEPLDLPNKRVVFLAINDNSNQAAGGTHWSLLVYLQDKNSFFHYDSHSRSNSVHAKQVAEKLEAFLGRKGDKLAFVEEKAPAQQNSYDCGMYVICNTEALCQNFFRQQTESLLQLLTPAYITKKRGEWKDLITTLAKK

Cysteine protease ATG4B = molecular target: T7, Cysteine protease ATG4B (Homo sapiens, UniProt Q9Y4P1); type: functional;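 note: Fluorescence-based dose-response confirmation assay measuring inhibition of ATG4B activity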
T7 sequence (Q9Y4P1 whole entry): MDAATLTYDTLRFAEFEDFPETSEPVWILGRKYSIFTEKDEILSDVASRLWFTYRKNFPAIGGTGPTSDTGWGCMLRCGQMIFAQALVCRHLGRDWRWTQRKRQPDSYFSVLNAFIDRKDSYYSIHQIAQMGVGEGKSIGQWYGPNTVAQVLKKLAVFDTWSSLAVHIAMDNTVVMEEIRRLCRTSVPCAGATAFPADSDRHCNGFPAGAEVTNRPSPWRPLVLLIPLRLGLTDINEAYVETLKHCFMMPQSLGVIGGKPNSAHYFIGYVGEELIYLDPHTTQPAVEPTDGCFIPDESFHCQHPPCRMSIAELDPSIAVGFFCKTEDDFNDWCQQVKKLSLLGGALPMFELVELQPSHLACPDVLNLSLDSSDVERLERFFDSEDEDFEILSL

Phospholipase A2 = Phospholipase A2 (Homo sapiens, UniProt P04054); type: functional;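 note: confirmatory dose-response counterscreen on phospholipase A2, testing hits that came from an ultra-high-throughput screen for ATG4B inhibitors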
Chain of Phospholipase A2 (P04054 whole entry): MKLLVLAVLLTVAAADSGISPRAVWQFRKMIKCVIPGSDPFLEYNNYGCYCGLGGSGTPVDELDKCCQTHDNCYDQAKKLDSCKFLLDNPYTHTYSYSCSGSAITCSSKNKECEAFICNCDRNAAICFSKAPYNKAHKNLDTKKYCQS

Melanocortin receptor 4 = Melanocortin receptor 4 (Homo sapiens, UniProt P32245); test: inhibitors of MC4R cAMP signaling – cell-based, TR-FRET, biased antagonists, dose response (AID 602298); type: functional;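 note: antagonist potency against agonist-stimulated cAMP production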
Chain of Melanocortin receptor 4 (P32245 whole entry): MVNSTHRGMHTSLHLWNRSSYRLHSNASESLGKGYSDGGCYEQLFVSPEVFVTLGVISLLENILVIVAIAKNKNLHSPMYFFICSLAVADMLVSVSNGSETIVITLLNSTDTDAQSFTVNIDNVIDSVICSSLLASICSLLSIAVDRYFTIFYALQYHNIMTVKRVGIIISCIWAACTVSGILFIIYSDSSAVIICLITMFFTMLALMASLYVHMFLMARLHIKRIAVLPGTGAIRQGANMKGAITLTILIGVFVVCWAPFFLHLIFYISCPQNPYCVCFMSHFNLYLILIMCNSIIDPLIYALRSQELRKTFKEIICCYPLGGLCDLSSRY

[9] = cAMP pathway inhibition in counterscreen cell line – TR-FRET cAMP detection, counter-screen for MC4R biased antagonist project, dose response (AID 602305); type: functional, cell-based;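 note: U2OS cells stimulated with forskolin near its EC80 as the cAMP inducer; potency is for inhibition of forskolin-stimulated cAMP signaling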
[10] = Luminescence Cell-Based Dose Retest to Confirm Inhibitors of Cancer Stem Cells. [Related pubchem assays (depositor defined):AID2717, AID2721]; type: functional; details: Homo sapiens

Row | SMILES | IC50 (CHO-K1) | IC50 [1] | IC50 [2] | IC50 [3] | IC50 (Orexin receptor type 2 [4]) | IC50 (Orexin receptor type 2 [5]) | IC50 (Caspase-3) | IC50 [6] | IC50 [7] | IC50 [8] | further results
1 | COc1cccc(-c2cc(C(=O)Nc3ccccc3SC)no2)c1 | > 66.2 µM (inactive) | > 49.7 µM (inactive) | 1.91 µM (active) | 3.59 µM (active) | > 88.8 µM (inactive) | > 50 µM (inactive) |  |  |  |  | AC50 (HeLa): 97.5 µM (active)
2 | CCOC(=O)c1c(C)[nH]c(C(=O)OCC(=O)c2ccccc2)c1C |  |  |  |  |  |  | 24.3 µM (active) | 7.72 µM (active) | 24.4 µM (active) | 26.4 µM (active) | 
3 | Cc1nc2cc(-c3nc4ccccc4o3)ccc2[nH]1 | > 66.2 µM (inactive) | > 49.8 µM (inactive) | 1.06 µM (active) | 6.1 µM (active) | > 88.8 µM (inactive) | > 50 µM (inactive) |  |  |  |  | 
4 | Cc1c(NS(=O)(=O)c2cccc(C(=O)OCC(=O)N(C)C3CCCCC3)c2)c(=O)n(-c2ccccc2)n1C | > 66.2 µM (inactive) | > 49.7 µM (inactive) | 0.142 µM (active) | 2.42 µM (active) | 1.2 µM (active) | 0.8 µM (active) |  |  |  |  | 
5 | Cc1oc(-c2ccccc2Cl)nc1C[S+]([O-])CC(=O)NCc1ccccc1Cl (stereo not given) |  |  |  |  |  |  |  |  |  |  | IC50 (Cysteine protease ATG4B): 16.8 µM (active); IC50 (Phospholipase A2): 7.47 µM (active)
6 | O=C(Nc1nnc(CCc2ccccc2)s1)c1ccccc1F |  |  |  |  |  |  | 18.9 µM (active) | 16.8 µM (active) | > 100 µM (inactive) | > 100 µM (inactive) | 
7 | COc1cc(-c2nc3ccc4ccccc4c3c3c2CCC3)cc(OC)c1OC |  |  |  |  |  |  |  |  |  |  | IC50 (Melanocortin receptor 4): 43.1 µM (inactive); IC50 [9]: > 64.6 µM (inactive)
8 | O=C(N/N=C/C(Br)=C\c1ccccc1)c1cccs1 |  |  |  |  |  |  | 31.6 µM (active) | 5.94 µM (active) | > 100 µM (inactive) | > 100 µM (inactive) | 
9 | O=C(Nc1ccccc1N1CCCCC1)c1ccc(Cl)c([N+](=O)[O-])c1 |  |  |  |  |  |  |  |  |  |  | AC50 [10]: 3.19 µM (active); IC50 (Melanocortin receptor 4): > 64.6 µM (inactive); IC50 [9]: > 64.6 µM (inactive)
10 | COc1ccc(Cl)cc1-n1c(=S)sc2c(O)nc(SCC(=O)NCCC(C)C)nc21 |  |  |  |  |  |  |  |  |  |  | IC50 (Cysteine protease ATG4B): 19.5 µM (active); IC50 (Phospholipase A2): 13.8 µM (active)
